Experimental data published in PubChem BioAssay (NCI).
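The compound was tested at five concentrations on cells cultured in 96-well plates, with a 48-hour exposure period. At the GI50, growth is halved. TGI denotes the concentration required for complete inhibition of growth.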

Assays:
Assay in all cases: NCI tumour cell line growth inhibition, 48 h
[1] = system: 786-0 renal
[2] = system: A498 renal
[3] = system: A549 NSCLC
[4] = system: ACHN renal
[5] = system: BT-549 breast
[6] = system: CAKI-1 renal
[7] = system: CCRF-CEM leukemia
[8] = system: COLO 205 colon
[9] = system: DU-145 prostate
[10] = system: EKVX NSCLC
[11] = system: HCC-2998 colon
[12] = system: HCT-116 colon
[13] = system: HCT-15 colon
[14] = system: HL-60(TB) leukemia
[15] = system: HOP-62 NSCLC
[16] = system: HOP-92 NSCLC
[17] = system: HS 578T breast
[18] = system: HT29 colon
[19] = system: IGROV1 ovarian
[20] = system: K-562 leukemia
[21] = system: KM12 colon
[22] = system: LOX IMVI melanoma
[23] = system: M14 melanoma
[24] = system: MALME-3M melanoma
[25] = system: MCF7 breast
[26] = system: MDA-MB-231 breast
[27] = system: MDA-MB-435
[28] = system: MOLT-4 leukemia
[29] = system: NCI-H226 lung
[30] = system: NCI-H23 lung
[31] = system: NCI-H460 lung
[32] = system: NCI-H522 lung
[33] = system: NCI/ADR-RES ovarian
[34] = system: OVCAR-3 ovarian
[35] = system: OVCAR-4 ovarian
[36] = system: OVCAR-5 ovarian
[37] = system: OVCAR-8 ovarian
[38] = system: PC-3 prostate
[39] = system: RPMI-8226 leukemia
[40] = system: SF-268 CNS
[41] = system: SF-295 CNS
[42] = system: SF-539 CNS
[43] = system: SK-MEL-2 melanoma
[44] = system: SK-MEL-28 melanoma
[45] = system: SK-MEL-5 melanoma
[46] = system: SK-OV-3 ovarian
[47] = system: SN12C renal
[48] = system: SNB-19 CNS
[49] = system: SNB-75 CNS
[50] = system: SR leukemia
[51] = system: SW-620 colon
[52] = system: T-47D breast
[53] = system: TK-10 renal
[54] = system: U251 CNS
[55] = system: UACC-257 melanoma
[56] = system: UACC-62 melanoma
[57] = system: UO-31 renal

## O=C(CCCCCCNC(=O)C(O)(O)C(F)(F)F)Nc1ncc(-c2ccccc2)s1
[1]
  GI50: 3.8 µM
  TGI: > 23.5 µM
[2]
  GI50: 0.493 µM
  TGI: 5.68 µM
[3]
  GI50: 5.96 µM
  TGI: > 23.5 µM
[4]
  GI50: 3.56 µM
  TGI: 15.3 µM
[5]
  GI50: 2.47 µM
  TGI: 16.6 µM
[6]
  GI50: 5.6 µM
  TGI: > 23.5 µM
[7]
  GI50: 2.93 µM
  TGI: > 23.5 µM
[8]
  GI50: 3.5 µM
  TGI: 10.5 µM
[9]
  GI50: 5.26 µM
  TGI: > 23.5 µM
[10]
  GI50: 8.16 µM
  TGI: > 23.5 µM
[11]
  GI50: 4.71 µM
  TGI: 13.5 µM
[12]
  GI50: 0.7 µM
  TGI: > 23.5 µM
[13]
  GI50: 3.99 µM
  TGI: 10.5 µM
[14]
  GI50: 3.53 µM
  TGI: > 23.5 µM
[15]
  GI50: 4.93 µM
  TGI: > 23.5 µM
[16]
  GI50: 0.695 µM
  TGI: 4.26 µM
[17]
  GI50: 2.62 µM
  TGI: 18.4 µM
[18]
  GI50: 2.72 µM
  TGI: > 23.5 µM
[19]
  GI50: 3.23 µM
  TGI: 9.98 µM
[20]
  GI50: 1.26 µM
  TGI: > 23.5 µM
[21]
  GI50: 4.51 µM
  TGI: > 23.5 µM
[22]
  GI50: 2.52 µM
  TGI: 5.79 µM
[23]
  GI50: 5.32 µM
  TGI: > 23.5 µM
[24]
  GI50: 1.79 µM
  TGI: 14.2 µM
[25]
  GI50: 7.19 µM
  TGI: > 23.5 µM
[26]
  GI50: 2.48 µM
  TGI: 14.9 µM
[27]
  GI50: 4.45 µM
  TGI: > 23.5 µM
[28]
  GI50: 1.3 µM
  TGI: > 23.5 µM
[29]
  GI50: 5.58 µM
  TGI: > 23.5 µM
[30]
  GI50: 4.56 µM
  TGI: > 23.5 µM
[31]
  GI50: 2.57 µM
  TGI: > 23.5 µM
[32]
  GI50: 3.67 µM
  TGI: 15.6 µM
[33]
  GI50: 4.27 µM
  TGI: 17.1 µM
[34]
  GI50: 2.38 µM
  TGI: 5.97 µM
[35]
  GI50: 11.1 µM
  TGI: > 23.5 µM
[36]
  GI50: 2.07 µM
  TGI: 13.6 µM
[37]
  GI50: 2.9 µM
  TGI: > 23.5 µM
[38]
  GI50: 3.39 µM
  TGI: > 23.5 µM
[39]
  GI50: 1.96 µM
  TGI: > 23.5 µM
[40]
  GI50: 5.58 µM
  TGI: 17.8 µM
[41]
  GI50: 3.49 µM
  TGI: 8.88 µM
[42]
  GI50: 5.63 µM
  TGI: > 23.5 µM
[43]
  GI50: 3.64 µM
  TGI: 14.6 µM
[44]
  GI50: 3.29 µM
  TGI: > 23.5 µM
[45]
  GI50: 3.46 µM
  TGI: 7.22 µM
[46]
  GI50: 3.51 µM
  TGI: 17.6 µM
[47]
  GI50: 3.75 µM
  TGI: > 23.5 µM
[48]
  GI50: 4.81 µM
  TGI: 22 µM
[49]
  GI50: 1.33 µM
  TGI: > 23.5 µM
[50]
  GI50: 1.01 µM
  TGI: > 23.5 µM
[51]
  GI50: 2.4 µM
  TGI: 9.91 µM
[52]
  GI50: 3.73 µM
  TGI: > 23.5 µM
[53]
  GI50: 0.679 µM
  TGI: > 23.5 µM
[54]
  GI50: 3.07 µM
  TGI: 10.8 µM
[55]
  GI50: 4.91 µM
  TGI: > 23.5 µM
[56]
  GI50: 1.65 µM
  TGI: 5.61 µM
[57]
  GI50: 3.72 µM
  TGI: 14 µM
